Results taken from patent publication US11628221B2, “Peptide linker and combination for prodrugs activated by prostate-specific antigen” (priority 2017, dated 2023).
Read-outs that look alike come from different tables or passages of the source. Numbered stars: 1 amine (or outer) side, 2 acyl side, 3 side chain; on linkers, the order of the positions; unused ones are H or OH. Square brackets hold non-standard residues; d marks the D form. Peptide text beside a SMILES is read from it. * marks the point of attachment. Doxorubicin(3'-N) = COc1cccc2c1C(=O)c1c(O)c3c(c(O)c1C2=O)C[C@@](O)(C(=O)CO)C[C@@H]3O[C@H]1C[C@H](N*)[C@H](O)[C@H](C)O1; Glutaryl = O=C(CCCC(=O)[*:2])[*:1]; Hyp = O=C(O)[C@@H]1C[C@@H](O)CN1; Chg = N[C@H](C(=O)O)C1CCCCC1; X1 = O=C(O)CCCNC(=O)CC(=O)*

What was measured:
[1] = test system: LNCaP cells; experiment: cells; settings: for IC50: read-out: LNCaP IC50
Experimental: (§1) Monolayer cultures of PSA-secreting LNCaP and non-PSA-secreting DU145 human prostate carcinoma cells were conducted in growth medium in a CO2 incubator under a humidified atmosphere at 37° C. for 3 weeks prior to initiating cytotoxicity experiments. During cell growth, media were changed every 3 days and trypsinization carried out at 80% confluence with a 1:4 split for subsequent cultures. Cells were grown on 96-well plates for 48 h at initial concentrations of 5000 cells/well. At the end of the 48-h period, the growth medium was replaced by serum-free medium RPMI 1640 medium containing L-glutamine (2 mM), 2% TCM, penicillin G (100 units/mL) and streptomycin sulfate (100 units/mL), and prodrugs added to wells at concentrations ranging from 0.07 to 100 μM. The plates were incubated at 37° C. for 72 h under a humidified CO2 atmosphere, and cell viability determined using the MTT assay. Briefly, 10 μL aliquots of a 12 mM MTT solution were added to wells and the plates incubated in a CO2 incubator under a humidified atmosphere at 37° C. for 4 h. Well contents were then solubilized with 1% SDS (100 μL/well) for 12 h, and OD570 values measured on a Dynatech MR5000 plate reader. Cell viability was computed as a percentage of control growth, and IC50 values determined as the concentration at which cell growth is inhibited by 50%.
(§2) To assess cytotoxicity and tumor selectivity, all prodrugs were incubated in cultured cell lines secreting (LNCaP) or lacking (DU145) PSA for a period of 72 h. Doxorubicin was used as a positive control and cell viability determined at the end of the incubation period using an MTT assay. It was anticipated that peptide prodrugs would be activated extracellularly in LNCaP, but not DU145 cells, by the proteolytic action of PSA releasing doxorubicin that would ultimately lead to cell death.

[2] = test system: DU145 cells; experiment: Prodrug cytotoxicity in non-PSA-secreting DU145 cells (MTT assay), selectivity; type: cell-based, human; settings: LNCaP versus non-PSA-secreting DU145 cells, 72 h
Experimental: as §1, §2

[3] = biological target: human PSA (Homo sapiens, UniProt P07288); experiment: Hydrolysis of doxorubicin prodrugs by PSA (PSA enzyme assay, LC-MS/MS prodrug disappearance); settings: for % of prodrug at 60 min: prodrug 1 μM incubated with human PSA 1 μM, 50 mM Tris buffer pH 8, 37° C.
Experimental: (§3) For doxorubicin conjugates, peptide solution concentrations were determined by measuring the UV absorbance at 484 and 254 nm (20 μM for doxorubicin and 50 μM for phosphoramide mustard conjugates, respectively) of solutions prepared (based on weight) in water from 10 mM DMSO stock solutions. Using the extinction coefficients of doxorubicin at 484 nm (10,800 M-1·cm-1), peptide concentrations were calculated and adjusted accordingly to prepare 100 μM solutions in 50 mM Tris buffer, pH 8 containing 2 mM CaCl2 and 0.1% Tween 20. […] Peptide solutions were prepared in Tris buffer pH 8 at a concentration of 1.11 μM from 1 mM DMSO stock solutions, and warmed up to 37° C. Reactions were initiated at 37° C. with the addition of 5 μL aliquots of a 10 μM solution of human PSA to 45 μL aliquots of the 1.11 μM peptide solutions in eppendorf vials (total volume 50 μL, final PSA concentration 1 μM), and time points recorded over a period of 3 h. Reactions were terminated at 0, 10, 20, 30, 60, 120, 180 and 360 min by quenching 2 μL aliquots of incubates with 20 μL of chilled 50% ACN containing 0.1 μM internal standard (IS) and 0.1% formic acid (FA) pre-added to eppendorf vials. Samples were centrifuged at 3000 RPM for 15 min and the supernatants analyzed by LC-MS/MS in SRM mode as previously described. The fraction of prodrug remaining at each time point was calculated by dividing the prodrug/IS ratio by the 0-h prodrug/IS area ratio and half-life determined from prodrug disappearance rate.
(§4) Substrate disappearance was monitored by LC-MS/MS analysis using SRM. The percentage of prodrug remaining at any given time point was computed by taking the ratio of its peak area response and that of the 0-h time point.

[4] = test system: tumor cells; settings: cited from earlier work
[5] = biological target: PSA (prostate-specific antigen) (Homo sapiens, UniProt P07288); experiment: Hydrolysis of doxorubicin prodrugs by PSA (PSA enzyme assay, LC-MS/MS prodrug disappearance); settings: human, pH 8
Experimental: as §3, §4

[6] = 72 h incubation, MTT assay, PSA-secreting LNCaP cells

Chain of human PSA (P07288 25-261): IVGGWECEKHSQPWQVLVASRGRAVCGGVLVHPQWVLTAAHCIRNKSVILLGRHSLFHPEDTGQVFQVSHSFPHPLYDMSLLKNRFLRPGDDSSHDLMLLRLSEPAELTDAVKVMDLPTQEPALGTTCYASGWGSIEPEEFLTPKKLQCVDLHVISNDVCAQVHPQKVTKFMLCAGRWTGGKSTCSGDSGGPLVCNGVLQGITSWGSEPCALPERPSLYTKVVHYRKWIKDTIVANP
Chain of PSA (prostate-specific antigen) (P07288 25-261): as above

Structure (SMILES)	IC50 [1, 6]	Selectivity against DU145 [2]	% of prodrug at 60 min [3]	cytotoxicity against PSA-secreting LNCaP cells (in words) ([1]; 72 h, MTT assay)	half-life at 1 μM [5]	other results
COc1cccc2c1C(=O)c1c(O)c3c(c(O)c1C2=O)C[C@@](O)(C(=O)CO)C[C@@H]3O[C@H]1C[C@H](NC(=O)[C@H](CC(C)C)NC(=O)[C@H](CO)NC(=O)[C@H](CCC(N)=O)NC(=O)[C@@H](NC(=O)[C@H](CO)NC(=O)[C@H](C)NC(=O)[C@H](CO)NC(=O)CCCC(=O)O)C2CCCCC2)[C@H](O)[C@H](C)O1 [Prodrug 2, Glutaryl-Ser-Ala-Ser-Chg-Gln-Ser-Leu-Dox] (Glutaryl-SAS[Chg]QSL-{Doxorubicin(3'-N)})	270 nM	370	12%	–	–	–
COc1cccc2c1C(=O)c1c(O)c3c(c(O)c1C2=O)C[C@@](O)(C(=O)CO)C[C@@H]3O[C@H]1C[C@H](NC(=O)[C@@H](N)CC(C)C)[C@H](O)[C@H](C)O1 [Leu-Doxorubicin]	–	–	–	–	–	fold less cytotoxic (than doxorubicin) ([4]; Wong et al. (2001)): 10 fold
COc1cccc2c1C(=O)c1c(O)c3c(c(O)c1C2=O)C[C@@](O)(C(=O)CO)C[C@@H]3O[C@H]1C[C@H](NC(=O)[C@H](CC(C)C)NC(=O)[C@H](CO)NC(=O)[C@H](CCC(N)=O)NC(=O)[C@@H](NC(=O)[C@H](CO)NC(=O)[C@H](C)NC(=O)[C@@H]2C[C@@H](O)CN2C(=O)CCCC(=O)O)C2CCCCC2)[C@H](O)[C@H](C)O1 [Prodrug 1, Glutaryl-Hyp-Ala-Ser-Chg-Gln-Ser-Leu-Dox] (Glutaryl-[Hyp]AS[Chg]QSL-{Doxorubicin(3'-N)})	180 nM	560	13%	–	–	–
COc1cccc2c1C(=O)c1c(O)c3c(c(O)c1C2=O)C[C@@](O)(C(=O)CO)C[C@@H]3O[C@H]1C[C@H](N)[C@H](O)[C@H](C)O1 [Dox, Doxorubicin]	–	1	–	–	–	IC50 ([1]; Homo sapiens, LNCaP, 72 h): < 70 nM; times more potent than Leu-Doxorubicin at killing tumor cells [4]: 10 times
COc1cccc2c1C(=O)c1c(O)c3c(c(O)c1C2=O)C[C@@](O)(C(=O)CO)C[C@@H]3O[C@H]1C[C@H](NC(=O)[C@H](CC(C)C)NC(=O)[C@H](CO)NC(=O)[C@H](CCC(N)=O)NC(=O)[C@@H](NC(=O)[C@H](CO)NC(=O)[C@H](C)NC(=O)CC(=O)NCCCC(=O)O)C2CCCCC2)[C@H](O)[C@H](C)O1 [Prodrug 3, GABA←mGly-Ala-Ser-Chg-Gln-Ser-Leu-Dox] (X1-AS[Chg]QSL-{Doxorubicin(3'-N)})	–	–	–	most cytotoxic prodrug	22 min	–
COc1cccc2c1C(=O)c1c(O)c3c(c(O)c1C2=O)C[C@@](O)(C(=O)COC(=O)C(C)(C)CONC(=O)[C@H](CCC(N)=O)NC(=O)[C@@H](NC(=O)[C@H](CO)NC(=O)[C@H](C)NC(=O)CC(=O)NCCCC(=O)O)C1CCCCC1)C[C@@H]3O[C@H]1C[C@H](N)[C@H](O)[C@H](C)O1 [Prodrug 4, GABA←mGly-Ala-Ser-Chg-Gln-NH—O—CH2—C(Me)2C(O)-14-O-Dox]	–	–	–	comparable to that of L-377,202	67 min	cytotoxin released by the prodrug ([3]; PSA-mediated hydrolysis, LC-MS with accurate mass (FIG. 10)): free doxorubicin
